Assay results reported in PMC5041959, “A high-content EMT screen identifies multiple receptor tyrosine kinase inhibitors with activity on TGFβ receptor” (Oncotarget, 2016).
pIC50: −log10 of the molar value. Read-outs that look alike come from different tables or passages of the source.

Assays:
[1] = cited from earlier work
[2] = cited from earlier work; remark: listed apart in the source
NMuMG cells = assay: High-content microscopy EMT screen in TGFβ-treated NMuMG cells (FA, SF, FN, cell count); type: cell-based, murine; details: for Emax: read-out: Emax (maximal effect on cell count)
[3] = mice, single dose of 50 mg/kg; cited from earlier work
TGFBR2 = TGFBR2 (Homo sapiens, UniProt P37173); assay: Biochemical kinase profiling (33PanQinase radiometric assay)
Py2T cells = assay: High-content microscopy EMT assay in TGFβ-treated Py2T breast cancer cells; type: cell-based, murine; details: Py2T
TGFBR1 = molecular target: T1, TGFBR1 (Homo sapiens, UniProt P36897); assay: Biochemical kinase profiling (33PanQinase radiometric assay)
T1 sequence (P36897 34-503): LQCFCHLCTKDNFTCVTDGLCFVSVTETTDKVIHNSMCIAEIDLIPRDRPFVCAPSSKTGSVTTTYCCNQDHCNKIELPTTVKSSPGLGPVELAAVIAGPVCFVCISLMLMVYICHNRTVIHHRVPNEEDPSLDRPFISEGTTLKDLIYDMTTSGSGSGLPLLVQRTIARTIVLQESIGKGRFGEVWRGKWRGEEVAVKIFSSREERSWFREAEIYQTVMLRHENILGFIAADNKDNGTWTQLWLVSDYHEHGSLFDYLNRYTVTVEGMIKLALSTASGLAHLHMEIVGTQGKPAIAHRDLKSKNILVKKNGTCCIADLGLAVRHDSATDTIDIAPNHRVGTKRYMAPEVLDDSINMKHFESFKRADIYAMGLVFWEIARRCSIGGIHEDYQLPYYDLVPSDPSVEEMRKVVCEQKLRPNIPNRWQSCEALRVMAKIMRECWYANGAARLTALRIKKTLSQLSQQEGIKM

c-KIT = molecular target: T2, c-KIT (Homo sapiens, UniProt P10721); assay: as above; details: ATP at apparent Km
T2 construct: purchased ProQinase (Freiburg, Germany)

VEGFR2 = molecular target: T3, VEGFR2 (Homo sapiens, UniProt P35968); assay: as above; details: ATP at apparent Km
T3 construct: purchased ProQinase (Freiburg, Germany)

EGFR = EGFR (Homo sapiens, UniProt P00533); assay: as above; details: read-out: EGFR IC50; ATP at apparent Km
PDGFRA = PDGFRA (Homo sapiens, UniProt P16234); assay: as above; details: read-out: PDGFRA IC50; ATP at apparent Km
VEGFR3 = molecular target: T4, VEGFR3 (Homo sapiens, UniProt P35916); assay: as above; details: ATP at apparent Km
T4 construct: purchased ProQinase (Freiburg, Germany)

FGFR4 = FGFR4 (Homo sapiens, UniProt P22455); assay: as above; details: read-out: FGFR4 IC50; ATP at apparent Km
PDGFRB = PDGFRB (Homo sapiens, UniProt P09619); assay: as above; details: read-out: PDGFRB IC50; ATP at apparent Km
SRC = SRC (Homo sapiens, UniProt P12931); assay: as above; details: read-out: SRC IC50; ATP at apparent Km
FGFR1 = FGFR1 (Homo sapiens, UniProt P11362); assay: as above; details: read-out: FGFR1 IC50; ATP at apparent Km
VEGFR1 = molecular target: T5, VEGFR1 (Homo sapiens, UniProt P17948); assay: as above; details: ATP at apparent Km
T5 construct: purchased ProQinase (Freiburg, Germany)

FGFR2 = FGFR2 (Homo sapiens, UniProt P21802); assay: as above; details: read-out: FGFR2 IC50; ATP at apparent Km
FGFR3 = FGFR3 (Homo sapiens, UniProt P22607); assay: as above; details: read-out: FGFR3 IC50; ATP at apparent Km
[4] = Mus musculus, 96 h, NMuMG, TGFβ1 2 ng/ml plus compound, 4 days, parameter decreased by 50%, read-out: FA IC50 (focal adhesion formation)
[5] = Mus musculus, 96 h, NMuMG, TGFβ1 2 ng/ml plus compound, 4 days, parameter decreased by 50%, read-out: FN IC50 (fibronectin patch formation)
[6] = Mus musculus, 96 h, NMuMG, TGFβ1 2 ng/ml plus compound, 4 days, parameter decreased by 50%, read-out: SF IC50 (stress fibers)
[7] = Mus musculus, NMuMG, cell count decreased by 50% compared to DMSO control, read-out: Tox IC50
[8] = Mus musculus, NMuMG, mean of IC50 values obtained for FA, SF, FN, read-out: EMT (FA/SF/FN) combined IC50
[9] = Mus musculus, read-out: CCI IC50 (cell count increase)

TGFBR2, sequence (P37173 23-567): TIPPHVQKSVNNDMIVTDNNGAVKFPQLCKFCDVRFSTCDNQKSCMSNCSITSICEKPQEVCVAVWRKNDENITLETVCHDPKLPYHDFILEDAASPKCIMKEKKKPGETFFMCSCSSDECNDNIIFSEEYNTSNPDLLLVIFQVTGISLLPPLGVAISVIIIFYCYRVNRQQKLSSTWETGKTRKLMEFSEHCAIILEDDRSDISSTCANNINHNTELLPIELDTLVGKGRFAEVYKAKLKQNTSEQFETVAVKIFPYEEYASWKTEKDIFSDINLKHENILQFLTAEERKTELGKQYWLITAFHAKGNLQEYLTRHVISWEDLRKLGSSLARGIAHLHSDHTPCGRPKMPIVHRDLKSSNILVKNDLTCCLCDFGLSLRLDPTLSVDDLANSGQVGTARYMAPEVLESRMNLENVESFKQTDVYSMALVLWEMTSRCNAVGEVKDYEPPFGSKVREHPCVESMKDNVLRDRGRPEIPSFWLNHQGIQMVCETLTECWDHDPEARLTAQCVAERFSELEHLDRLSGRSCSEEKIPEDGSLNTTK
T4 sequence (P35916 25-1363): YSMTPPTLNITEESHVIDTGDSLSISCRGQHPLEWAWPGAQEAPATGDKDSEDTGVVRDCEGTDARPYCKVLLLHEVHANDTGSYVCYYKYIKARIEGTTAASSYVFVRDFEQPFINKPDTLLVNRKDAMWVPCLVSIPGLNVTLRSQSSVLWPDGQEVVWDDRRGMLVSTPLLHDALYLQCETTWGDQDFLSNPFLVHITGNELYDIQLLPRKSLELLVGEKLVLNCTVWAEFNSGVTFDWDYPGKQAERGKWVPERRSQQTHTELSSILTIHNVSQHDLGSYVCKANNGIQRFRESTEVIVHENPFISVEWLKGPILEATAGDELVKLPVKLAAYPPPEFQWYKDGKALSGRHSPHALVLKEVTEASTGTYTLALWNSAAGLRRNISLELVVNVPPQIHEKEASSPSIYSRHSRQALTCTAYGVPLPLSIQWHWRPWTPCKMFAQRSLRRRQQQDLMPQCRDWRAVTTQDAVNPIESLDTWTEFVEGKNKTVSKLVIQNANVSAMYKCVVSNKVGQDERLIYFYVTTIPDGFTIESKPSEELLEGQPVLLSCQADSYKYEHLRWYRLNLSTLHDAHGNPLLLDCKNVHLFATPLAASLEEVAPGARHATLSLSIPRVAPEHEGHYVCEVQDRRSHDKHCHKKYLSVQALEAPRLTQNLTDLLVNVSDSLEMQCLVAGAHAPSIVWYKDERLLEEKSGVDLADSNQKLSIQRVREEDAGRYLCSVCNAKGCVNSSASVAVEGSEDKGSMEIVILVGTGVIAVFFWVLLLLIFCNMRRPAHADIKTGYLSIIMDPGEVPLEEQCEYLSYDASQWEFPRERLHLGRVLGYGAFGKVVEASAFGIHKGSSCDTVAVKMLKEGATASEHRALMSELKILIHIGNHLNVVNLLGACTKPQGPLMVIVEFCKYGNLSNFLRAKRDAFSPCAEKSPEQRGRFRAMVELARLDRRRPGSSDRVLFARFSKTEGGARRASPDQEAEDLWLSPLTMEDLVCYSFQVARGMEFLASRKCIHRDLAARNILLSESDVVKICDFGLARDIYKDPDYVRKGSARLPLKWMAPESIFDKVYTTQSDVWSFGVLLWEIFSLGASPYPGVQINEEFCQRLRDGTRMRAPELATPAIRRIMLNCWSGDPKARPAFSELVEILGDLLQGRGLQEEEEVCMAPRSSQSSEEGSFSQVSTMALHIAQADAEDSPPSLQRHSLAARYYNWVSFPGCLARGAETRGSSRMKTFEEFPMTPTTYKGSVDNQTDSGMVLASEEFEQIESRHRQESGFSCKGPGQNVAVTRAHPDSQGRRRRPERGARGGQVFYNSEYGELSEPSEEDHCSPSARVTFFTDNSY
PDGFRB, sequence (P09619 33-1106): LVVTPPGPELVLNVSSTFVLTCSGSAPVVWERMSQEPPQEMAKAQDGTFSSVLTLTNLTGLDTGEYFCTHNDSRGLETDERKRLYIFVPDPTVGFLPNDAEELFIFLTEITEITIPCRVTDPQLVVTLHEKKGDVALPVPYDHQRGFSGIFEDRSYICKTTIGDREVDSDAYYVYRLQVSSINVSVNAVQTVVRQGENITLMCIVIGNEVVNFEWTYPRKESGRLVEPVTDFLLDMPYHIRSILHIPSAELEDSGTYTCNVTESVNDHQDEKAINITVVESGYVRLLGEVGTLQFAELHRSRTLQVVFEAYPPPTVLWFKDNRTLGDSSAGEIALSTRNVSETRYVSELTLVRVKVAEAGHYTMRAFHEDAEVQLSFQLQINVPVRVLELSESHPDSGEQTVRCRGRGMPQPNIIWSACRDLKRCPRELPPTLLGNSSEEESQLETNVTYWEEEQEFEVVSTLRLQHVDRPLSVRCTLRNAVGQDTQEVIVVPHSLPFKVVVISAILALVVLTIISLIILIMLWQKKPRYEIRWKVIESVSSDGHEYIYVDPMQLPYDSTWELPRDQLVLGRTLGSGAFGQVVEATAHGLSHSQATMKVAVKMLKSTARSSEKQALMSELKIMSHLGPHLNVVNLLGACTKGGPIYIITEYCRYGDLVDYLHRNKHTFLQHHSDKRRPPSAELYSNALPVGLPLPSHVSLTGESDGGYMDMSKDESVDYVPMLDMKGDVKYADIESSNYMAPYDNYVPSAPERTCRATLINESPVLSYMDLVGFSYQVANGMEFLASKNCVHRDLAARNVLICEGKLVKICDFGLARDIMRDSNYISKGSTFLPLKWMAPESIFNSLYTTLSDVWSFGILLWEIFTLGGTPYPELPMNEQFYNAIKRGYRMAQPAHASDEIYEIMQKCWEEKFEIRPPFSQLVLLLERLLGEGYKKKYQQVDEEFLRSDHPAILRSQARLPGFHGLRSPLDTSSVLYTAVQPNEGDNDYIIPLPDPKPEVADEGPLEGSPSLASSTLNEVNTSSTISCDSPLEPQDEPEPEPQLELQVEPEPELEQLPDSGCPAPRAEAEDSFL
SRC, sequence (P12931 whole entry): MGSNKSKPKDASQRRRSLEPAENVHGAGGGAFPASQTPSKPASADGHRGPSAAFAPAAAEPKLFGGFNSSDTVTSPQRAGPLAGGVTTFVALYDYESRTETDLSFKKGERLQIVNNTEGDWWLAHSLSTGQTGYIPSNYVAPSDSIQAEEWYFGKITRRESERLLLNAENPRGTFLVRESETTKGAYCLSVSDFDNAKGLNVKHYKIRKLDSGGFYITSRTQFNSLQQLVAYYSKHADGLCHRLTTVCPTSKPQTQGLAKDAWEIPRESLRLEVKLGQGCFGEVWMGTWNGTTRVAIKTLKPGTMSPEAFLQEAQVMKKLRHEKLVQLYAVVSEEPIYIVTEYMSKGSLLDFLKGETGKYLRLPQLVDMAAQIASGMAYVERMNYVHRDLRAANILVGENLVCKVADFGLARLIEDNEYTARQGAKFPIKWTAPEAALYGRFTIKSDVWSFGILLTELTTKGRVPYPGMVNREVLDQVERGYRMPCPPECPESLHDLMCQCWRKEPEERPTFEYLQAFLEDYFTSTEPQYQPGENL
T2 sequence (P10721 26-976): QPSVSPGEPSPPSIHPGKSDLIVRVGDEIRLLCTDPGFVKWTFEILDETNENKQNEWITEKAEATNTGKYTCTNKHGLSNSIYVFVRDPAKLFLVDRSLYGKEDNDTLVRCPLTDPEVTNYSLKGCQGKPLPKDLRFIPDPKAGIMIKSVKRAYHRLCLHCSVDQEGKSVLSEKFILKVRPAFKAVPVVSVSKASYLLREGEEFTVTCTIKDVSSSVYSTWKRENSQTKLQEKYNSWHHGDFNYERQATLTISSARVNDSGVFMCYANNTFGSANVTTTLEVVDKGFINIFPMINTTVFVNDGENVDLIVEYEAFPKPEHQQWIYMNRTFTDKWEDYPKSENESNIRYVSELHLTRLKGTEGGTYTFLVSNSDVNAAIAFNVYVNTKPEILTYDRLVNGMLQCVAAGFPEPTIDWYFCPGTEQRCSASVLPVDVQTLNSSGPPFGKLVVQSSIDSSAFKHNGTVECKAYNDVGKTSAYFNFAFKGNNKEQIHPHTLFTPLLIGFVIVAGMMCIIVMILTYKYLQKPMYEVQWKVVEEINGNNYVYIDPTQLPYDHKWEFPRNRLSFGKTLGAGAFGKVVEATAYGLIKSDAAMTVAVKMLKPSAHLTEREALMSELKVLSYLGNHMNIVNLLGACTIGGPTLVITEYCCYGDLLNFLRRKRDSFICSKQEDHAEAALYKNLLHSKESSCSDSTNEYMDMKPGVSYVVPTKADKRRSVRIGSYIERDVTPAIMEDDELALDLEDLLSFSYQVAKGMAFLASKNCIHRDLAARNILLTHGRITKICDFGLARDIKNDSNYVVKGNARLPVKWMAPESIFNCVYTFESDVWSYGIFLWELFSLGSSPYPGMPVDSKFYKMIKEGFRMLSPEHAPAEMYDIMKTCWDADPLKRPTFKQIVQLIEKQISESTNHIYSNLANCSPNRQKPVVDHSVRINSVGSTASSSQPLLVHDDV

## Cc1ccc(Nc2nccc(N(C)c3ccc4c(C)n(C)nc4c3)n2)cc1S(N)(=O)=O [Pazopanib]
[1]
  plasma protein binding: above 99.9%
[2]
  steady state blood levels required to be active in patients: at least 40 μM
NMuMG cells; [4]
  pIC50: 5.10
NMuMG cells; [5]
  pIC50: 5.40
NMuMG cells; [6]
  pIC50: 5.14
NMuMG cells; Mus musculus, combined FA/SF/FN, read-out: IC50 for blocking EMT in NMuMG cells
  pIC50: 5.19
NMuMG cells; [7]
  pIC50: 4.80
NMuMG cells; [8]
  pIC50: 5.19
NMuMG cells; [9]
  pIC50: 5.97
NMuMG cells; Mus musculus
  Emax: 17.6%

## COC(=O)c1ccc2c(c1)NC(=O)/C2=C(\Nc1ccc(N(C)C(=O)CN2CCN(C)CC2)cc1)c1ccccc1 [Nintedanib]
[3]
  Cmax: ~1000 nM
TGFBR2
  pIC50: < 5.00
NMuMG cells; [4]
  pIC50: 5.58
NMuMG cells; [5]
  pIC50: 5.93
NMuMG cells; [6]
  pIC50: 5.30
NMuMG cells; [7]
  pIC50: 4.64
NMuMG cells; [8]
  pIC50: 5.53
NMuMG cells; [9]
  pIC50: 5.96
NMuMG cells; Mus musculus
  Emax: 26.2%
Py2T cells; Mus musculus, cell count decreased by 50% compared to DMSO control, read-out: Tox IC50
  pIC50: 6.30
Py2T cells; TGFβ plus compound, 4 days
  FA IC50 (focal adhesions): n.m.
  FN IC50 (fibronectin patches): n.m.
  SF IC50 (stress fibers): n.m.
Py2T cells; compared to reference 10 μM SB-431542 = 100%
  Emax (maximal effect on cell count): n.m.
TGFBR1
  pIC50: 6.30

## Cc1cccc(-c2[nH]c(C(C)(C)C)nc2-c2ccc3nccnc3c2)n1 [SB-525334]
c-KIT
  pIC50: < 5.00
VEGFR2
  pIC50: 5.45
EGFR
  pIC50: < 5.00
PDGFRA
  pIC50: < 5.00
VEGFR3
  pIC50: < 5.00
FGFR4
  pIC50: < 5.00
PDGFRB
  pIC50: < 5.00
SRC
  pIC50: 5.25
TGFBR2; read-out: TGFBR2 IC50, ATP at apparent Km
  pIC50: < 5.00
NMuMG cells; NMuMG, TGFβ1 2 ng/ml plus compound, 4 days, parameter decreased by 50%, read-out: FA IC50 (focal adhesion formation)
  pIC50: 6.56
NMuMG cells; NMuMG, TGFβ1 2 ng/ml plus compound, 4 days, parameter decreased by 50%, read-out: FN IC50 (fibronectin patch formation)
  pIC50: 6.58
NMuMG cells; NMuMG, TGFβ1 2 ng/ml plus compound, 4 days, parameter decreased by 50%, read-out: SF IC50 (stress fibers)
  pIC50: 6.61
NMuMG cells; NMuMG, cell count decreased by 50% compared to DMSO control, read-out: Tox IC50
  pIC50: < 5.52
NMuMG cells; NMuMG, cell count increased by 50% compared to 100% with 10 μM SB-431542, read-out: CCI IC50 (cell count increase)
  pIC50: 6.42
NMuMG cells; NMuMG, compared to reference 10 μM SB-431542 = 100%
  Emax (maximal effect on cell count): 100%
NMuMG cells; NMuMG, mean of IC50 values obtained for FA, SF, FN, read-out: EMT (FA/SF/FN) combined IC50
  pIC50: 6.59
FGFR1
  pIC50: < 5.00
VEGFR1
  pIC50: > 9.52
FGFR2
  pIC50: < 5.00
FGFR3
  pIC50: < 5.00
